Test results as given in patent US20070292387A1, “TRANSMUCOSAL DELIVERY OF PHARMACEUTICAL ACTIVE SUBSTANCES” (GWANGJU INSTITUTE OF SCIENCE AND TECHNOLOGY, priority 2006, published 2007).
Read-outs that look alike come from different tables or passages of the source. Values belong to the compound of their own block, whether it stands above or below them.

Key:
[1] = Plasma paclitaxel after single oral dose with or without P-gp inhibitor cyclosporine A; format: in vivo, ICR mice
Experimental: ICR mice (male, 25-30 g) were fasted for 12 hr before dosing. Mice were anesthetized with diethyl ether and administered with a single oral dose of paclitaxel or paclitaxel-chitosan conjugates with or without P-gp inhibitor (cyclosporine A, Sigma, 15 mg/kg) through an oral gavage that was carefully passed down the esophagus into the stomach. The drug solutions were prepared in 10% DMSO solution. The total volume of the administered drug solution was 0.2 ml. Blood (450 μl) was collected from a capillary in the retroorbital plexus and directly mixed with 50 Al of sodium citrate (3.8% solution); the sample was then immediately centrifuged at 3000 rpm at 4° C. for 20 min. The concentrations of paclitaxel in plasma were measured using HPLC after extraction.

B16F10 melanoma cells = experiment: Oral administration in B16F10 melanoma allograft (tumor size, survival); format: in vivo, C57BL6 male mice; details: oral 25 mg/kg, 5 days on, 2 days off, about 30 days; FIG. 7
Experimental: B16F10 melanoma cells were subcutaneously transplanted at a cell density of 5×10^6 cells/mice into a dorsal region of C57BL6 male mice (mean body weight: 25 g). […] Experiments were carried out for mouse groups, each consisting of 5 to 6 animals having the tumor, simultaneously with observation of changes. Animals were given oral administration of the drug or physiological saline for about 30 days, starting on day 10 after tumor transplantation. […] The control group was administered physiological saline, paclitaxel and chitosan. In order to confirm the degree of tumor growth, the size of tumor was daily measured using a calibrator. The tumor size was calculated according to the following Equation (2): Tumor volume (mm^3)=(Length×Width^2)/2 (Equation 2).
The survival rate of mice was also monitored simultaneously with measurement of the tumor size. When the tumor mass reached a size of more than 8000 mm^3, the animals were euthanized.

[2] = oral, cited from earlier work
Diabetes-induced rats [3] = experiment: Bioavailability calculated from degree of blood glucose control (AUC) after oral administration; format: in vivo, rat; details: insulin 1.77 mg/kg, protease inhibitor not added
Experimental: (§1) An insulin-chitosan conjugate (a conjugate using chitosan of MW 3000, 6000 or 9000 Da) was dissolved in a citrate buffer solution and then diluted with physiological saline to prepare an insulin-chitosan conjugate solution at an insulin concentration of 100 U/mL. Diabetes-induced rats were fasted for 6 hours, and blood was collected from the tail veins of animals and the blood glucose level was determined. The thus-obtained value was used as an initial value prior to administration of the drug. The experimental animals were given oral administration of the above-prepared insulin-chitosan conjugate solution at a dose of 50 IU/kg using a gastric sonde (50 IU is equivalent to 1.77 mg of insulin). As a control, animals were given oral administration of 50 IU/kg insulin and chitosan of MW 9000 Da in the same manner as above. On time points of 1, 2, 3, and 4 hours after administration of the drug, blood was collected from the tail veins of animals and the blood glucose level was determined. The blood glucose level at each time point was calculated by taking the initial value prior to administration of the drug to be 100%.
Then, the bioavailability of conjugates were calculated from the degree of blood glucose control (area under curve, AUC) obtained in FIG. 2 after oral administration of each insulin-chitosan conjugate. […] In addition, as a control, known bioavailability of insulin, a protease-chitosan conjugate and a thiolated chitosan-insulin tablet preparation containing glutathione (a reducing agent) (Krauland A H, et al., J. Control Release, 24; 95(3):547-555 (2004)) was compared.

Diabetes-induced rats [4] = experiment: In vivo oral administration of insulin-chitosan conjugate (blood glucose level); design: species or system rat; details: FIG. 2
Experimental: as §1

increase of maximum plasma concentration (Cmax) when coadministrated with cyclosporine A ([1]; cyclosporine A 15 mg/kg, FIG. 6a): 9.3 fold | Cmax ([1]; male, ICR, mouse, plasma, without cyclosporine A, conjugate chitosan MW 6000, read-out: maximum plasma concentration (Cmax) of paclitaxel): 90 ± 20 ng/mL
Compound: CC(=O)O[C@H]1C(=O)[C@@]2(C)[C@H]([C@H](OC(=O)c3ccccc3)[C@]3(O)C[C@H](OC(=O)[C@H](O)[C@@H](NC(=O)c4ccccc4)c4ccccc4)C(C)=C1C3(C)C)[C@]1(OC(C)=O)CO[C@@H]1C[C@@H]2O [paclitaxel]
tumor size compared to the control group (B16F10 melanoma cells): no significant difference in the tumor size | bioavailability of paclitaxel ([2]; PTX only): 4-10% | bioavailability of paclitaxel ([2]; combined with a P-gp inhibitor such as cyclosporin A or Valspodar): 50-60%

Compound: Insulin-3K LMWC: insulin-chitosan conjugate using low molecular weight chitosan of MW 3000 Da
Bioavailability (%) (SC injection: 100%) (Diabetes-induced rats [3]): 1.89 ± 0.32%

Compound: Insulin-6K LMWC: insulin-6 KDa low molecular weight chitosan conjugate
Bioavailability (%) (IV injection: 100%) (Diabetes-induced rats [3]): 0.77 ± 0.16% | Bioavailability (%) (SC injection: 100%) (Diabetes-induced rats [3]): 2.66 ± 0.38%

Compound: Insulin-9K LMWC: insulin-chitosan conjugate using low molecular weight chitosan of MW 9000 Da
Bioavailability (%) (IV injection: 100%) (Diabetes-induced rats [3]): 1.0 ± 0.13% | Bioavailability (%) (SC injection: 100%) (Diabetes-induced rats [3]): 3.69 ± 0.29%

Compound: insulin
lowering of the blood glucose levels (in words) (Diabetes-induced rats [4]; insulin 50 IU/kg, chitosan of MW 9000 Da): no lowering of the blood glucose levels

Compound: insulin-chitosan conjugate: insulin (B29 lysine) bound via -CO-(CH2)2-S-S-(CH2)2-CO- linker to chitosan of MW 3000, 6000 or 9000
decrease in the blood glucose level compared to the initial blood glucose level (Diabetes-induced rats [4]; 50 IU insulin/kg, 2 hours later): > 40%
